Counter-ions that a name gives are not always drawn.
Columns and labels:
[1] = system: mice (tail-flick, heat source reaction time); experiment: Mouse tail-flick test; type: in vivo, mouse (male Charles River); settings: sc, 0.5 h, s.c., 30 min after dosing, percent number of mice doubling the initial time, data given for free base form, read-out: ANALGESIA MOUSE TAIL-FLICK ED50
Procedure: Mouse Tail-flick test (Modified from the procedure published by D Amour et al., J. Pharm. Exptl. Ther.72, 74/1941).
Male Charles River mice, average weight 26g, are used. Selection is carried out before beginning of experiments: only mice whose reaction time is less than 8 sec are used. They are randomly distributed into groups of 10 and dosed with compounds under test, with positive and negative controls being included.
Compounds under test are administered subcutaneously in isotonic saline in a volume of 20 ml. Kg^-1. 30 min later mice are placed again under heat source (Socrel apparatus) and reaction time is recorded.
The analgesic activity of the test compound is expressed as the percent number of mice doubling the initial time within a group. [formula]

[2] = system: mice (p-phenylquinone-induced abdominal writhing); experiment: P-phenylquinone-induced abdominal writhing test in mice; type: in vivo, mouse (male Charles River, Swiss Strain); settings: Mus musculus, sc, 20 min; s.c., 20 min pretreatment; p-phenylquinone 2 mg/Kg i.p.; 8 min observation; data given for free base form; read-out: ANALGESIA MOUSE WRITHING ED50
Procedure: P-phenylquinone-induced Abdominal Writhinq Test in Mice
The methodology employed is based on that described by Sigmund et al, Proc. Soc. Exptl. Biol. 95, 729/1957, modified by Milne and Twomey, Agents and Actions, 10, 31/1980.
Male Charles River mice (Swiss Strain), 25-36 g body weight, are used. Animals are allowed food and water ad libitum and are randomized into groups of 10 prior to experimentation. Test compounds are dissolved in either distilled water or distilled water plus 0.1 M AMS, and administered by the subcutaneous route in a final volume of 10 ml/Kg. Control animals receive 10 ml/Kg of the appropriate vehicle alone. Following a pretreatment period of 20 min., mice are injected intraperitoneally with p-phenylquinone, 2 mg/Kg at 37° C. in a final volume of 10 mg/Kg. Next, the mice are placed, in a groups of 3, in a compartmented perspex box maintained at room temperature and are observed for a period of 8 min. During this period the number of abdominal writhing responses per animal are recorded where writhing consists of an intermittent contraction of the abdomen associated with hind leg extension.
The degree of antinociceptive protection afforded by the test compound is determined as the mean number of writhing responses observed in the treated group (T) expressed as a percentage of the mean number of writhing responses in the control group (C) according to the following formula:
[1-(T/C)]×100%=% graded protection.

Structure (SMILES) | ED50 [1] [mg/kg] | ED50 [2] [mg/kg]
O=C1CCCc2cc(CC(=O)N3CCc4ccccc4C3CN3CCCCC3)ccc21 (stereo not shown) [Example 2, 1-(piperidin-1-yl)methyl-2-(1-oxo-3,4-dihydro-(2H)-napht-6-yl)acetyl-1,2,3,4-tetrahydroisoquinoline hydrochloride] | 0.206 | 0.038
O=C1CCCc2cc(CC(=O)N3CCc4ccccc4C3CN3CCCC3)ccc21 (stereo not shown) [Example 1, 1-(pyrrolidin-1-yl)methyl-2-(1-oxo-3,4-dihydro-(2H)-napht-6-Yl)acetyl-1,2,3,4-tetrahydroisoquinoline hydrochloride] | 0.114 | 0.036
O=C1CCCc2cc(CC(=O)N3CCc4sccc4C3CN3CCCCC3)ccc21 (stereo not shown) [Example 4, 4-(piperidin-1-yl)methyl-5-(1-oxo-3,4-dihydro-(2H)-napht-6-Yl)acetyl-4,5,6,7-tetrahydrothieno [3,2-c]pyridine hydrochloride hemihydrate] | 0.174 | 0.017
O=C1CCCc2cc(CC(=O)N3CCc4sccc4C3CN3CCCCC3)ccc21 (single isomer, unassigned) [Example 5, (-)4-(piperidin-1-yl)methyl-5-(1-oxo-3,4-dihydro-(2H)-napht-6-yl)acetyl-4,5,6,7-tetrahydrothieno [3,2-c]pyridine L(+) tartrate] | 0.045 | 0.009
O=C1CCCc2cc(CC(=O)N3CCc4sccc4C3CN3CCCC3)ccc21 (stereo not shown) [Example 3, 4-(pyrrolidin-1-yl)methyl-5-(1-oxo-3,4-dihydro-(2H)-napht-6-yl)acetyl-4,5,6,7-tetrahydrothieno [3,2-c] pyridine hydrochloride] | 0.086 | 0.023

Reference: US5041451A, “Tetrahydroisoquinoline and tetrahydrothieno derivatives” (Dr. Lo. Zambelletti SpA, priority 1988, dated 1991)
